“And” between values parts separate entries of the source, which are not always exact repeats. Identical values can stand only once.
Tests used:
T24 cell line [1] = experiment: Caspase 3/7 activation flow cytometry assay; assay type: cell-based, human; conditions: T24, 24 h
Method: (§1) Subsequently, to assess caspases 3/7 activation, the cells were incubated with medium alone or with increasing concentrations of compounds (Degrasyn, PR-619) in conditions similar to the previous test. Following cell collection, the cells were twice PBS-washed and stained in accordance with the manufacturer’s instructions. For active caspase 3/7 detection, CellEventCaspase-3/7 Green Detection Reagent Solution was added to the samples. The cells were then suspended 1 more time in the wash buffer after being washed twice. For flow cytometric analysis, a flow cytometers (FACS Calibur, Becton Dickinson, Biosciences, San Jose, CA, USA; CytoFlex, Beckman Coulter, CA, USA) were used, and CellQuest 3.lf (Becton Dickinson, San Jose, CA, USA) and CytExpert 2.4 (Beckman Coulter, CA, USA) software were used for data analysis. The presented results were obtained from three independent experiments.

SV-HUC-1 cell line [2] = experiment: Caspase 3/7 activation flow cytometry assay; assay type: cell-based, human; conditions: SV-HUC-1, 24 h
Method: as §1

T24 cell line [3] = experiment: MTT cell proliferation assay; assay type: cell-based, human; conditions: for cells killed at the highest concentration: T24, MTT, highest concentration used (20 μM)
Method: (§2) Cell proliferation was determined using the 3-(4,5-dimethylthiazol-2-yl)-2,5-diphenyltetrazolium bromide (MTT) assay (Sigma-Aldrich, Steinheim, Germany). Cells were plated at a density of 1 × 10^5 cells per mL in 96-well plates (Thermo Fisher Scientific, Roskilde, Denmark) and allowed to attach overnight. Subsequently, Degrasyn and PR-619 were added in increasing concentrations (0.6, 1.25, 2.5, 5, 10, and 20 μM). After incubation for 24, 48, and 72 h with either the compounds or in the medium alone, 20 μL of MTT solution (5 mg/mL) was added to each well. After an additional 4 h, 80 μL of the lysis buffer (225 mL DMF, 67.5 g SDS, and 275 mL distilled water) was added to each well. After dissolving the content, the absorbance was measured at a […] of 570 nm using a spectrophotometric microplate reader Spark (Tecan). The values were obtained from 3 independent experiments (different plates, different days). Based on the results, the concentration that inhibited 50% of the cell proliferation (IC50) was calculated for all incubation intervals.

SV-HUC-1 cell line [4] = experiment: MTT cell proliferation assay; assay type: cell-based, human; conditions: for cells killed at the highest concentration: SV-HUC-1, MTT, highest concentration used (20 μM)
Method: as §2

RDSVS-TCC1 cell line [5] = experiment: MTT cell proliferation assay; assay type: cell-based, canine; conditions: highest concentration used (20 μM)
Method: as §2

K9TCC-PU-NK cell line [6] = experiment: MTT cell proliferation assay; assay type: cell-based, canine; conditions: highest concentration used (20 μM)
Method: as §2

RDSVS-TCC1 cell line [7] = experiment: Caspase 3/7 activation flow cytometry assay; assay type: cell-based, canine; conditions: RDSVS-TCC1, 24 h
Method: as §1

K9TCC-PU-NK cell line [8] = experiment: Caspase 3/7 activation flow cytometry assay; assay type: cell-based, canine; conditions: 24 h
Method: as §1

T24 cell line [9] = experiment: Ki-67 flow cytometry proliferation assay; assay type: cell-based, human; conditions: T24, 24 h, p < 0.05
Method: (§3) For the cell proliferation assay, cells were plated in 100 mm cell culture plates. When the cultures reached 60% confluence, the media were discarded from the wells and replaced with culture media only or media with added compounds (Degrasyn, PR-619) with increasing concentrations for 24 h. The growth medium was then removed from the wells, the cells were rinsed twice with PBS, and 0.25% trypsin-EDTA was added to detach the cells. After 5 min of incubation at 37 °C and 5% CO2, the fresh culture medium was added to inactivate the trypsin, and cells were collected in flow cytometry tubes. Cells were then labeled using the Ki-67 Proliferation Kit BD Pharmingen(BD Biosciences) according to the manufacturer’s instructions and analyzed using a flow cytometer (Cytoflex, Beckman Coulter). Unstained control cells were used for gating to determine the percentage of the proliferation of the Ki-67-positive cells in the samples. Percentages of proliferating (Ki-67 positive) cells were used to calculate the means ± SD for each cell line. The presented results were obtained from three independent experiments.

SV-HUC-1 cell line [10] = experiment: Ki-67 flow cytometry proliferation assay; assay type: cell-based, human; conditions: SV-HUC-1, 24 h, p < 0.05
Method: as §3

T24 cell line [11] = experiment: Annexin V-FITC/PI apoptosis flow cytometry; assay type: cell-based, human; conditions: T24, 24 h; for pro-apoptotic effect (number of apoptotic cells vs control): increasing concentrations up to approximately IC50
Method: (§4) To assess the level of apoptosis induced by Degrasyn and PR-619, cells were seeded at a density of 1 × 10^5/mL in 96-well plates (TPP, Trasadingen, Switzerland) and incubated for 24 h with increasing concentrations of compounds. Cells were then collected, suspended in a binding buffer, and stained with Annexin V-FITC for 10 min at room temperature. Subsequently, PI was added, and flow cytometric analysis was immediately performed using a flow cytometers (FACS Calibur, Becton Dickinson, Biosciences, San Jose, CA, USA; CytoFlex, Beckman Coulter, CA, USA). CellQuest 3.lf. (Becton Dickinson, San Jose, CA, USA) and CytExpert 2.4 (Beckman Coulter, CA, USA) software were used for data analysis.

SV-HUC-1 cell line [12] = experiment: Annexin V-FITC/PI apoptosis flow cytometry; assay type: cell-based, human; conditions: SV-HUC-1, 24 h; for pro-apoptotic effect (number of apoptotic cells vs control): increasing concentrations up to approximately IC50
Method: as §4

RDSVS-TCC1 cell line [13] = experiment: Ki-67 flow cytometry proliferation assay; assay type: cell-based, canine; conditions: RDSVS-TCC1, 24 h, p < 0.05
Method: as §3

K9TCC-PU-NK cell line [14] = experiment: Ki-67 flow cytometry proliferation assay; assay type: cell-based, canine; conditions: 24 h, p < 0.05
Method: as §3

[15] = 2.5 μM (highest concentration of Degrasyn)
[16] = 5 μM (highest concentration of PR-619)
[17] = 5 μM (highest concentration of Degrasyn)
[18] = 10 μM (highest concentration of PR-619)
[19] = only highest concentration 10 µM
[20] = only highest concentration 5 µM

SMILES | percentage of cells with active caspase 3/7 (T24 cell line [1]; 1.25 μM) [%] | percentage of cells with active caspase 3/7 (T24 cell line [1]; [15]) | percentage of cells with active caspase 3/7 (SV-HUC-1 cell line [2]; 1.25 μM) [%] | percentage of cells with active caspase 3/7 (SV-HUC-1 cell line [2]; [15]) | cells killed at the highest concentration (T24 cell line [3]) [%] | cells killed at the highest concentration (SV-HUC-1 cell line [4]) [%] | cells killed at the highest concentration (RDSVS-TCC1 cell line [5]) [%] | cells killed at the highest concentration (K9TCC-PU-NK cell line [6]) [%] | percentage of cells with active caspase 3/7 (RDSVS-TCC1 cell line [7]; 2.5 μM) [%] | percentage of cells with active caspase 3/7 (RDSVS-TCC1 cell line [7]; [17]) | percentage of cells with active caspase 3/7 (K9TCC-PU-NK cell line [8]; 2.5 μM) [%] | percentage of cells with active caspase 3/7 (K9TCC-PU-NK cell line [8]; [17]) | pro-apoptotic effect (number of apoptotic cells vs control) (T24 cell line [11]) | pro-apoptotic effect (number of apoptotic cells vs control) (SV-HUC-1 cell line [12]) | other results
N#CSc1cc(SC#N)c(N)nc1N [PR-619] | 10.2 | 13.4% | 8.9 | 10.6% | ~100 | ~100 | ~100 | ~100 | 6.1 | 12.9% | 6.4 | 9.9% | did not show a significant pro-apoptotic effect | did not show a significant pro-apoptotic effect | percentage of cells with active caspase 3/7 (T24 cell line [1]; [16]): 16.1 ± 4.9% and 16.1%; percentage of cells with active caspase 3/7 (SV-HUC-1 cell line [2]; [16]): 19.6 ± 1.8% and 19.6%; percentage of cells with active caspase 3/7 (RDSVS-TCC1 cell line [7]; [18]): 16.2 ± 7.4% and 16.2%; percentage of cells with active caspase 3/7 (K9TCC-PU-NK cell line [8]; [18]): 13.3 ± 3.3% and 13.2%; percentage of Ki-67 positive cells (as compared to the control) (T24 cell line [9]; 5–10 µM): significantly decreased; percentage of Ki-67 positive cells (as compared to control) (SV-HUC-1 cell line [10]; [19]): significantly decreased; percentage of early and late apoptotic cells (T24 cell line [11]; 5 μM): 9.8 ± 1.5%; percentage of early and late apoptotic cells (SV-HUC-1 cell line [12]; 5 μM): 14.8 ± 5.8%; percentage of Ki-67 positive cells (as compared to control) (RDSVS-TCC1 cell line [13]; [19]): significantly decreased; percentage of Ki-67 positive cells (as compared to control) (K9TCC-PU-NK cell line [14]; [19]): significantly decreased
CCC[C@H](NC(=O)/C(C#N)=C/c1cccc(Br)n1)c1ccccc1 [Degrasyn] | 16.1 | 36.6 ± 0.7% and 36.6% | 7.6 | 22.4 ± 5.4% and 22.4% | ~100 | ~100 | ~100 | ~100 | 11.7 | 22.5 ± 4.3% and 22.5% | 7.1 | 11.9 ± 1.8% and 11.9% | significant increase | significant increase | percentage of cells with active caspase 3/7 (T24 cell line [1]; 0.6 μM): 12.5%; percentage of cells with active caspase 3/7 (SV-HUC-1 cell line [2]; 0.6 μM): 5.8%; IC50 (T24 cell line [3]; T24, 24 h exposure, MTT, read-out: IC50 (concentration that inhibited 50% of the cell proliferation)): 3.07 µM; IC50 (SV-HUC-1 cell line [4]; SV-HUC-1, 24 h exposure, MTT, read-out: IC50 (concentration that inhibited 50% of the cell proliferation)): 2330 nM; percentage of cells with active caspase 3/7 (RDSVS-TCC1 cell line [7]; 1.25 μM): 5.9%; percentage of cells with active caspase 3/7 (K9TCC-PU-NK cell line [8]; 1.25 μM): 5.4%; percentage of Ki-67 positive cells (as compared to the control) (T24 cell line [9]; 2.5–5 µM): significantly decreased; percentage of Ki-67 positive cells (as compared to control) (SV-HUC-1 cell line [10]; [20]): significantly decreased; percentage of early and late apoptotic cells (T24 cell line [11]; 2.5 μM): 32.2 ± 9.2%; percentage of early and late apoptotic cells (SV-HUC-1 cell line [12]; 2.5 μM): 24.1 ± 2.8%; percentage of Ki-67 positive cells (as compared to control) (RDSVS-TCC1 cell line [13]; [20]): significantly decreased; percentage of Ki-67 positive cells (as compared to control) (K9TCC-PU-NK cell line [14]; [20]): significantly decreased
